What was measured:
Format in all cases: in vivo
[1] = test system: Johnsongrass (Sorghum halepense, SORHA); assay: Pre-emerge greenhouse herbicide test, phytotoxicity rating; conditions: 14 days after application, rating scale 0-100
Summary of the method: (§1)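 Seeds sown in sandy loam mix one day before track-sprayer application of compounds in acetone at 125–1000 g ai/ha (187 l/ha), then surface-watered to incorporate and bottom-watered. Visual rating 14 days after application on a 0–100 scale (0 = no damage, 100 = all plants dead).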

[2] = test system: barnyardgrass (Echinochloa crusgalli, ECHCG); assay: as above; conditions: 14 days after application, rating scale 0-100
Summary of the method: as §1

[3] = test system: common ragweed (Ambrosia artemisiifolia L., AMBEL); assay: as above; conditions: 14 days after application, rating scale 0-100
Summary of the method: as §1

[4] = test system: green foxtail (Setaria viridis, SETVI); assay: as above; conditions: 14 days after application, rating scale 0-100
Summary of the method: as §1

[5] = test system: ivyleaf morningglory (Ipomoea hederacea, IPOHE); assay: as above; conditions: 14 days after application, rating scale 0-100
Summary of the method: as §1

[6] = test system: lambsquarters (Chenopodium album, CHEAL); assay: as above; conditions: 14 days after application, rating scale 0-100
Summary of the method: as §1

[7] = test system: large crabgrass (Digitaria sanguinalis, DIGSA); assay: as above; conditions: 14 days after application, rating scale 0-100
Summary of the method: as §1

[8] = test system: redroot pigweed (Amaranthus retroflexus, AMARE); assay: as above; conditions: 14 days after application, rating scale 0-100
Summary of the method: as §1

[9] = test system: sicklepod (Cassia obtusifolia, CASOB); assay: as above; conditions: 14 days after application, rating scale 0-100
Summary of the method: as §1

[10] = test system: velvetleaf (Abutilon theophrasti, ABUTH); assay: as above; conditions: 14 days after application, rating scale 0-100
Summary of the method: as §1

[11] = test system: field corn (Zea mays L., var. Dekalb 535, CORN); assay: Pre-emerge greenhouse test, crop damage rating; conditions: 14 days after application, rating scale 0-100
Summary of the method: as §1

[12] = test system: upland rice (Oryza sp., var.Tebonnet, RICE); assay: Pre-emerge greenhouse test, crop damage rating; conditions: 14 days after application, rating scale 0-100
Summary of the method: as §1

[13] = test system: soybean (Glycine max L., var. Pella 86, SOY); assay: Pre-emerge greenhouse test, crop damage rating; parameters: key to SOY crop damage rating: 0 = no damage, 100 = complete death of all plants; conditions: 14 days after application, rating scale 0-100
Summary of the method: as §1

[14] = test system: common ragweed (Ambrosia artemisiifolia L., AMBEL); assay: Post-emerge greenhouse herbicide test, phytotoxicity rating; conditions: 14 days after application, scale 0-100
Summary of the method: (§2)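 Compounds in acetone with 0.25% v/v non-ionic surfactant were track-sprayed at 187 l/ha over plants at the 2-3 leaf stage, at 63 to 1000 g ai/ha. Pots were bottom-watered. Injury was scored visually 14 days later on a 0-100 scale, where 0 is no damage and 100 is complete plant death.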

[15] = test system: Johnsongrass (Sorghum halepense, SORHA); assay: as above; conditions: 14 days after application, scale 0-100
Summary of the method: as §2

[16] = test system: barnyardgrass (Echinochloa crusgalli, ECHCG); assay: as above; conditions: 14 days after application, scale 0-100
Summary of the method: as §2

[17] = test system: green foxtail (Setaria viridis, SETVI); assay: as above; conditions: 14 days after application, scale 0-100
Summary of the method: as §2

[18] = test system: ivyleaf morningglory (Ipomoea hederacea, IPOHE); assay: as above; conditions: 14 days after application, scale 0-100
Summary of the method: as §2

[19] = test system: lambsquarters (Chenopodium album, CHEAL); assay: as above; conditions: 14 days after application, scale 0-100
Summary of the method: as §2

[20] = test system: large crabgrass (Digitaria sanguinalis, DIGSA); assay: as above; conditions: 14 days after application, scale 0-100
Summary of the method: as §2

[21] = test system: redroot pigweed (Amaranthus retroflexus, AMARE); assay: as above; conditions: 14 days after application, scale 0-100
Summary of the method: as §2

[22] = test system: sicklepod (Cassia obtusifolia, CASOB); assay: as above; conditions: 14 days after application, scale 0-100
Summary of the method: as §2

[23] = test system: velvetleaf (Abutilon theophrasti, ABUTH); assay: as above; conditions: 14 days after application, scale 0-100
Summary of the method: as §2

[24] = test system: field corn (Zea mays L., var. Dekalb 535, CORN); assay: Post-emerge greenhouse test, crop damage rating; conditions: 14 days after application, scale 0-100
Summary of the method: as §2

[25] = test system: upland rice (Oryza sp., var.Tebonnet, RICE); assay: Post-emerge greenhouse test, crop damage rating; conditions: 14 days after application, scale 0-100
Summary of the method: as §2

[26] = test system: soybean (Glycine max L., var. Pella 86, SOY); assay: Post-emerge greenhouse test, crop damage rating; parameters: key to crop damage rating SOY: 0-100 scale: 0 = no damage, 100 = complete death of all plants; conditions: 14 days after application, scale 0-100
Summary of the method: as §2

CCOC(=O)C(C)Oc1cc([N+](=O)[O-])c(Oc2cc(-n3c(=O)n4n(c3=S)CCCC4)c(F)cc2Cl)cc1Cl (centres unmarked) [Compound 8-38]
SORHA phytotoxicity rating ([1]; Rate 125 g al/ha): 0 | SORHA phytotoxicity rating ([1]; Rate 250 g al/ha): 0 | ECHCG phytotoxicity rating ([2]; Rate 125 g al/ha): 0 | ECHCG phytotoxicity rating ([2]; Rate 250 g al/ha): 0 | AMBEL phytotoxicity rating ([3]; Rate 125 g al/ha): 0 | AMBEL phytotoxicity rating ([3]; Rate 250 g al/ha): 0 | SETVI phytotoxicity rating ([4]; Rate 125 g al/ha): 0 | SETVI phytotoxicity rating ([4]; Rate 250 g al/ha): 70 | IPOHE phytotoxicity rating ([5]; Rate 125 g al/ha): 0 | IPOHE phytotoxicity rating ([5]; Rate 250 g al/ha): 30 | CHEAL phytotoxicity rating ([6]; Rate 125 g al/ha): 80 | CHEAL phytotoxicity rating ([6]; Rate 250 g al/ha): 90 | DIGSA phytotoxicity rating ([7]; Rate 125 g al/ha): 0 | DIGSA phytotoxicity rating ([7]; Rate 250 g al/ha): 0 | AMARE phytotoxicity rating ([8]; Rate 125 g al/ha): 30 | AMARE phytotoxicity rating ([8]; Rate 250 g al/ha): 80 | CASOB phytotoxicity rating ([9]; Rate 125 g al/ha): 0 | CASOB phytotoxicity rating ([9]; Rate 250 g al/ha): 0 | ABUTH phytotoxicity rating ([10]; Rate 125 g al/ha): 100 | ABUTH phytotoxicity rating ([10]; Rate 250 g al/ha): 100 | CORN crop damage rating ([11]; Rate 125 g al/ha): 0 | CORN crop damage rating ([11]; Rate 250 g al/ha): 0 | RICE crop damage rating ([12]; Rate 125 g al/ha): 0 | RICE crop damage rating ([12]; Rate 250 g al/ha): 0 | SOY crop damage rating ([13]; Rate 125 g al/ha): 0 | SOY crop damage rating ([13]; Rate 250 g al/ha): 0 | phytotoxicity rating AMBEL ([14]; rate 63 g ai/ha): 20 | phytotoxicity rating AMBEL ([14]; rate 250 g ai/ha): 50 | phytotoxicity rating SORHA ([15]; rate 63 g ai/ha): 0 | phytotoxicity rating SORHA ([15]; rate 250 g ai/ha): 0 | phytotoxicity rating ECHCG ([16]; rate 63 g ai/ha): 0 | phytotoxicity rating ECHCG ([16]; rate 250 g ai/ha): 0 | phytotoxicity rating SETVI ([17]; rate 63 g ai/ha): 0 | phytotoxicity rating SETVI ([17]; rate 250 g ai/ha): 20 | phytotoxicity rating IPOHE ([18]; rate 63 g ai/ha): 40 | phytotoxicity rating IPOHE ([18]; rate 250 g ai/ha): 100 | phytotoxicity rating CHEAL ([19]; rate 63 g ai/ha): 40 | phytotoxicity rating CHEAL ([19]; rate 250 g ai/ha): 50 | phytotoxicity rating DIGSA ([20]; rate 63 g ai/ha): 0 | phytotoxicity rating DIGSA ([20]; rate 250 g ai/ha): 0 | phytotoxicity rating AMARE ([21]; rate 63 g ai/ha): 60 | phytotoxicity rating AMARE ([21]; rate 250 g ai/ha): 70 | phytotoxicity rating CASOB ([22]; rate 63 g ai/ha): 30 | phytotoxicity rating CASOB ([22]; rate 250 g ai/ha): 30 | phytotoxicity rating ABUTH ([23]; rate 63 g ai/ha): 100 | phytotoxicity rating ABUTH ([23]; rate 250 g ai/ha): 00 | crop damage rating CORN ([24]; rate 63 g ai/ha): 0 | crop damage rating CORN ([24]; rate 250 g ai/ha): 20 | crop damage rating RICE ([25]; rate 63 g ai/ha): 20 | crop damage rating RICE ([25]; rate 250 g ai/ha): 50 | crop damage rating SOY ([26]; rate 63 g ai/ha): 10 | crop damage rating SOY ([26]; rate 250 g ai/ha): 20

Nc1cccnc1Oc1cc(-n2c(=O)n3n(c2=S)CCCC3)c(F)cc1Cl [Compound 8-42]
SORHA phytotoxicity rating ([1]; Rate 125 g al/ha): 0 | SORHA phytotoxicity rating ([1]; Rate 250 g al/ha): 0i | ECHCG phytotoxicity rating ([2]; Rate 125 g al/ha): 0 | ECHCG phytotoxicity rating ([2]; Rate 250 g al/ha): 0 | AMBEL phytotoxicity rating ([3]; Rate 125 g al/ha): 0 | AMBEL phytotoxicity rating ([3]; Rate 250 g al/ha): 30 | SETVI phytotoxicity rating ([4]; Rate 125 g al/ha): 0 | SETVI phytotoxicity rating ([4]; Rate 250 g al/ha): 0 | IPOHE phytotoxicity rating ([5]; Rate 125 g al/ha): 30 | IPOHE phytotoxicity rating ([5]; Rate 250 g al/ha): 50 | CHEAL phytotoxicity rating ([6]; Rate 125 g al/ha): 80 | CHEAL phytotoxicity rating ([6]; Rate 250 g al/ha): 100 | DIGSA phytotoxicity rating ([7]; Rate 125 g al/ha): 0 | DIGSA phytotoxicity rating ([7]; Rate 250 g al/ha): 0 | AMARE phytotoxicity rating ([8]; Rate 125 g al/ha): 100 | AMARE phytotoxicity rating ([8]; Rate 250 g al/ha): 100 | CASOB phytotoxicity rating ([9]; Rate 125 g al/ha): 100 | CASOB phytotoxicity rating ([9]; Rate 250 g al/ha): 80 | ABUTH phytotoxicity rating ([10]; Rate 125 g al/ha): 100 | ABUTH phytotoxicity rating ([10]; Rate 250 g al/ha): 100 | CORN crop damage rating ([11]; Rate 125 g al/ha): 0 | CORN crop damage rating ([11]; Rate 250 g al/ha): 0 | RICE crop damage rating ([12]; Rate 125 g al/ha): 0 | RICE crop damage rating ([12]; Rate 250 g al/ha): 0 | SOY crop damage rating ([13]; Rate 125 g al/ha): 0 | SOY crop damage rating ([13]; Rate 250 g al/ha): 20 | phytotoxicity rating AMBEL ([14]; rate 63 g ai/ha): 40 | phytotoxicity rating AMBEL ([14]; rate 250 g ai/ha): 90 | phytotoxicity rating SORHA ([15]; rate 63 g ai/ha): 0 | phytotoxicity rating SORHA ([15]; rate 250 g ai/ha): 0 | phytotoxicity rating ECHCG ([16]; rate 63 g ai/ha): 0 | phytotoxicity rating ECHCG ([16]; rate 250 g ai/ha): 0 | phytotoxicity rating SETVI ([17]; rate 63 g ai/ha): 0 | phytotoxicity rating SETVI ([17]; rate 250 g ai/ha): 0 | phytotoxicity rating IPOHE ([18]; rate 63 g ai/ha): 60 | phytotoxicity rating IPOHE ([18]; rate 250 g ai/ha): 70 | phytotoxicity rating CHEAL ([19]; rate 63 g ai/ha): 50 | phytotoxicity rating CHEAL ([19]; rate 250 g ai/ha): 80 | phytotoxicity rating DIGSA ([20]; rate 63 g ai/ha): 0 | phytotoxicity rating DIGSA ([20]; rate 250 g ai/ha): 0 | phytotoxicity rating AMARE ([21]; rate 63 g ai/ha): 50 | phytotoxicity rating AMARE ([21]; rate 250 g ai/ha): 95 | phytotoxicity rating CASOB ([22]; rate 63 g ai/ha): 0 | phytotoxicity rating CASOB ([22]; rate 250 g ai/ha): 0 | phytotoxicity rating ABUTH ([23]; rate 63 g ai/ha): 100 | phytotoxicity rating ABUTH ([23]; rate 250 g ai/ha): 100 | crop damage rating CORN ([24]; rate 63 g ai/ha): 0 | crop damage rating CORN ([24]; rate 250 g ai/ha): 0 | crop damage rating RICE ([25]; rate 63 g ai/ha): 0 | crop damage rating RICE ([25]; rate 250 g ai/ha): 0 | crop damage rating SOY ([26]; rate 63 g ai/ha): 20 | crop damage rating SOY ([26]; rate 250 g ai/ha): 60

— patent US6479435B1, “Diaryl ethers and processes for their preparation and herbicidal and desiccant compositions containing them” (ISK Americas Incorporated, priority 1997, dated 2002)
